Measured values: US8927559B2, “Quinazolinone-type compounds as CRTH2 antagonists” (Merck Sharp & Dohme Corp., priority 2010, dated 2015)
Several values for one entry are separate records, joined by “and”; a condition that tells them apart may be missing. Equal entries are not always repeated.

Molecular target: T1, CRTH2 receptor (hCRTH2) (Homo sapiens, UniProt Q9Y5Y4)
T1 construct: expressed in transfected cells; host or cells: HEK cells (HEK-hCRTH2 cell line), membranes
T1 sequence (Q9Y5Y4 1-395): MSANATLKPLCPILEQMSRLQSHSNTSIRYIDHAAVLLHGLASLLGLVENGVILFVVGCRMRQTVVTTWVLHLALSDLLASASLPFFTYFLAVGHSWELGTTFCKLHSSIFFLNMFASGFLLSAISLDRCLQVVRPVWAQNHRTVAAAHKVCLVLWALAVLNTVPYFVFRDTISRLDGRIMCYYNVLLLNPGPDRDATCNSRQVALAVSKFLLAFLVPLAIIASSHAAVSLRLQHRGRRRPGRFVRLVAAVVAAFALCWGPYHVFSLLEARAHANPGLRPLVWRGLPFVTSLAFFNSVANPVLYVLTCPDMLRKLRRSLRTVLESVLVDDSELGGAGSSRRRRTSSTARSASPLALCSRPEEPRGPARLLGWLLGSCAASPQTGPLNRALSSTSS
Assay: Radioligand binding assay ([3H]PGD2 competition, membranes of HEK-hCRTH2 cell line)
Settings: 3.0 nM [3H]PGD2, HEK-hCRTH2 membranes, 60 min, room temperature; read-out: Ki
Description: Competing ligands were diluted in dimethylsulfoxide (Me2SO) that was kept constant at 1% (v/v) of the final incubation volume. The reaction was initiated by the addition of 8-20 μg of membrane protein prepared from a HEK-hCRTH2 cell line. Total and non-specific binding were determined in the absence and the presence of […] PGD2, respectively. […] The reaction was routinely conducted for 60 min at room temperature and terminated by rapid filtration through prewetted (0.3% polyethyleneimine) 96-well printed filtermate (Wallac) using a Tomtec harvester. After washing with cold buffer, the filter was dried for 2 minutes in microwave, and Meltilex Scintillator sheet (Wallac) was melted on for 2 min.

| Ki | Compound |
| --- | --- |
| ≤ 0.01 µM and 0.0012 µM | CS(=O)(=O)c1ccc(Cn2cc(-c3ccc4c(=O)n(-c5ccc(F)cc5)c(CCCCC(=O)O)nc4c3)nn2)cc1 [Example 19D] |
| 0.01 to 0.05 µM | CC(C)(O)c1cn(-c2ccc3c(=O)n(-c4ccc(F)cc4)c(CCCCC(=O)O)nc3c2)nn1 [Example 21C] |
| ≤ 0.01 µM | O=C(O)CCCCc1nc2cc(-n3cc(-c4ccccc4)nn3)ccc2c(=O)n1-c1ccc(F)cc1 [Example 21D] |
| ≤ 0.01 µM | O=C(O)CCCCc1nc2cc(-n3cc(Cc4ccccc4)nn3)ccc2c(=O)n1-c1ccc(F)cc1 [Example 21E] |
| 0.01 to 0.05 µM | O=C(O)CCCCc1nc2cc(-c3nc(Cc4ccc(F)cc4)no3)ccc2c(=O)n1-c1ccc(F)cc1 [Example 22C] |
| ≤ 0.01 µM | O=C(O)CCCCc1nc2cc(-c3cc(CNC(=O)c4ccccc4)on3)ccc2c(=O)n1-c1ccc(F)cc1 [Example 24F] |
| ≤ 0.01 µM | Cc1ccc(S(=O)(=O)NCc2cc(-c3ccc4c(=O)n(-c5ccc(F)cc5)c(CCCCC(=O)O)nc4c3)no2)cc1 [Example 24G] |
| ≤ 0.01 µM | O=C(O)CCCCc1nc2cc(-c3cc(CNS(=O)(=O)c4ccc(F)cc4)on3)ccc2c(=O)n1-c1ccc(F)cc1 [Example 24H] |
| ≤ 0.01 µM | O=C(O)CCCCc1nc2cc(-c3cc(CNS(=O)(=O)Cc4ccccc4)on3)ccc2c(=O)n1-c1ccc(F)cc1 [Example 24J] |
| 0.01 to 0.05 µM | CC(C)(C)c1ccc(S(=O)(=O)NCc2cc(-c3ccc4c(=O)n(-c5ccc(F)cc5)c(CCCCC(=O)O)nc4c3)no2)cc1 [Example 24L] |
| 0.01 to 0.05 µM and 0.0405 µM | O=C(O)CCCCc1nc2cc(-c3cc(CNS(=O)(=O)c4ccc(-c5ccccc5)cc4)on3)ccc2c(=O)n1-c1ccc(F)cc1 [Example 24M] |
| ≤ 0.01 µM | O=C(O)CCCCc1nc2cc(-c3cc(CNS(=O)(=O)c4cc(F)cc(F)c4)on3)ccc2c(=O)n1-c1ccc(F)cc1 [Example 24N] |
| ≤ 0.01 µM | O=C(O)CCCCc1nc2cc(-c3cc(CNS(=O)(=O)c4ccc(F)c(F)c4)on3)ccc2c(=O)n1-c1ccc(F)cc1 [Example 24P] |
| ≤ 0.01 µM | CC(C)(C)OC(=O)NCc1cc(-c2ccc3c(=O)n(-c4ccc(F)cc4)c(CCCCC(=O)O)nc3c2)no1 [Example 24Q] |
| 0.01 to 0.05 µM | O=C(O)CCCCc1nc2cc(-c3cc(CNC(=O)c4ccc(F)cc4)on3)ccc2c(=O)n1-c1ccc(F)cc1 [Example 24R] |
| ≤ 0.01 µM | O=C(O)CCCCc1nc2cc(-c3cc(CNS(=O)(=O)c4ccc(OC(F)(F)F)cc4)on3)ccc2c(=O)n1-c1ccc(F)cc1 [Example 24i] |
| ≤ 0.01 µM | O=C(O)CCCCc1nc2cc(-c3cc(CNS(=O)(=O)c4ccc(Cl)cc4)on3)ccc2c(=O)n1-c1ccc(F)cc1 [Example 24o] |

| Ki | Compound |
| --- | --- |
| ≤ 0.01 µM | O=C(O)CCCCc1nc2cc(-c3cc([C@H](O)c4ccc(F)cc4)on3)ccc2c(=O)n1-c1ccc(F)cc1 [Example 25C] |
| ≤ 0.01 µM | O=C(O)CCCCc1nc2cc(-c3cc([C@@H](O)c4ccc(F)cc4)on3)ccc2c(=O)n1-c1ccccc1 [Example 25D] |
| ≤ 0.01 µM | O=C(O)CCCCc1nc2cc(-c3cc([C@H](O)c4ccc(F)cc4)on3)ccc2c(=O)n1-c1ccccc1 [Example 25E] |
| ≤ 0.01 µM | O=C(O)CCCCc1nc2cc(-c3cc(Cc4ccc(F)cc4)on3)ccc2c(=O)n1-c1ccccc1 [Example 25F] |
| ≤ 0.01 µM | O=C(O)CCCCc1nc2cc(-c3cc(C(O)c4ccc5ccccc5n4)on3)ccc2c(=O)n1-c1ccc(F)cc1 (stereo not shown) [Example 25G] |
| 0.01 to 0.05 µM | O=C(O)CCCCc1nc2cc(-c3cc(C(O)c4ccc5ccccc5n4)on3)ccc2c(=O)n1-c1ccc(F)cc1 (stereo not shown) [Example 25H] |
| ≤ 0.01 µM | O=C(O)CCCCc1nc2cc(-c3cc(Cc4ccc5ccccc5c4)on3)ccc2c(=O)n1-c1ccc(F)cc1 [Example 25J] |
| ≤ 0.01 µM | O=C(O)CCCCc1nc2cc(-c3cc(Cc4cnc5ccccc5n4)on3)ccc2c(=O)n1-c1ccc(F)cc1 [Example 25L] |
| ≤ 0.01 µM | O=C(O)CCCCc1nc2cc(-c3cc(C(O)c4ccc5ccccc5c4)on3)ccc2c(=O)n1-c1ccc(F)cc1 (stereo not shown) [Example 25i] |
| 0.01 to 0.05 µM | C[C@@]1([C@@H](O)c2ccccc2)CC(c2ccc3c(=O)n(-c4ccc(F)cc4)c(CCCCC(=O)O)nc3c2)=NO1 [Example 26C] |
| 0.01 to 0.05 µM | C[C@]1([C@@H](O)c2ccccc2)CC(c2ccc3c(=O)n(-c4ccc(F)cc4)c(CCCCC(=O)O)nc3c2)=NO1 [Example 26D] |
| ≤ 0.01 µM | C[C@]1(Cc2ccccc2)CC(c2ccc3c(=O)n(-c4ccc(F)cc4)c(CCCCC(=O)O)nc3c2)=NO1 [Example 26E] |
| ≤ 0.01 µM | C[C@@]1([C@H](O)c2ccccc2)CC(c2ccc3c(=O)n(-c4ccc(F)cc4)c(CCCCC(=O)O)nc3c2)=NO1 [Example 26F] |
| 0.01 to 0.05 µM | C[C@]1([C@H](O)c2ccccc2)CC(c2ccc3c(=O)n(-c4ccc(F)cc4)c(CCCCC(=O)O)nc3c2)=NO1 [Example 26G] |
| ≤ 0.01 µM | C[C@@]1([C@H](O)c2ccccc2)CC(c2ccc3c(=O)n(-c4ccccc4)c(CCCCC(=O)O)nc3c2)=NO1 [Example 26J] |
| 0.01 to 0.05 µM | C[C@]1([C@H](O)c2ccccc2)CC(c2ccc3c(=O)n(-c4ccccc4)c(CCCCC(=O)O)nc3c2)=NO1 [Example 26K] |
| 0.01 to 0.05 µM | C[C@]1(Cc2ccccc2)CC(c2ccc3c(=O)n(-c4ccccc4)c(CCCCC(=O)O)nc3c2)=NO1 [Example 26L] |

More lines, now with the values behind:

| Compound | Ki |
| --- | --- |
| N#Cc1ccc(C2CC(c3ccc4c(=O)n(-c5ccc(F)cc5)c(CCCCC(=O)O)nc4c3)=NO2)cc1 (stereo not shown) [Example 15Q] | ≤ 0.01 µM |
| CC(C)(C)OC(=O)N1CCC2(CC1)CC(c1ccc3c(=O)n(-c4ccc(Cl)cc4)c(CCCCC(=O)O)nc3c1)=NO2 [Example 15T] | ≤ 0.01 µM |
| CC(=O)N1CCC2(CC1)CC(c1ccc3c(=O)n(-c4ccc(Cl)cc4)c(CCCCC(=O)O)nc3c1)=NO2 [Example 15U] | 0.01 to 0.05 µM |
| COCC1(c2ccccc2)CC(c2ccc3c(=O)n(-c4ccc(F)cc4)c(CCCCC(=O)O)nc3c2)=NO1 (stereo not shown) [Example 15V] | 0.01 to 0.05 µM |
| COCC1(c2ccccc2)CC(c2ccc3c(=O)n(-c4ccc(Cl)cc4)c(CCCCC(=O)O)nc3c2)=NO1 (stereo not shown) [Example 15W] | 0.01 to 0.05 µM |
| O=C(O)CCCCc1nc2cc(C3=NOC4(CCCCC4)C3)ccc2c(=O)n1-c1ccc(F)cc1 [Example 15X] | ≤ 0.01 µM |
| O=C(O)CCCCc1nc2cc(C3=NOC4(CCCCC4)C3)ccc2c(=O)n1-c1ccc(Cl)cc1 [Example 15Y] | ≤ 0.01 µM |
| N#CC1CC2(CC(c3ccc4c(=O)n(-c5ccc(Cl)cc5)c(CCCCC(=O)O)nc4c3)=NO2)C1 (stereo not shown) [Example 15Z] | ≤ 0.01 µM |
| CC1(c2ccccc2)CC(c2ccc3c(=O)n(-c4ccc(Cl)cc4)c(CCCCC(=O)O)nc3c2)=NO1 (stereo not shown) [Example 15i] | ≤ 0.01 µM |
| COc1cccc(C2CC(c3ccc4c(=O)n(-c5ccc(Cl)cc5)c(CCCCC(=O)O)nc4c3)=NO2)c1 (stereo not shown) [Example 15o] | ≤ 0.01 µM |
| O=C(O)CCCCc1nc2cc(-c3cn(Cc4ccccc4)nn3)ccc2c(=O)n1-c1ccc(F)cc1 [Example 17, 5-[7-(1-benzyl-1H-1,2,3-triazol-4-yl)-3-(4-fluorophenyl)-4-oxo-3,4-dihydroquinazolin-2-yl]pentanoic acid] | ≤ 0.01 µM |
| O=C(O)CCCCc1nc2cc(-c3c[nH]nn3)ccc2c(=O)n1-c1ccc(F)cc1 [Example 18, 5-[3-(4-fluorophenyl)-4-oxo-7-(1H-1,2,3-triazol-4-yl)-3,4-dihydroquinazolin-2-yl]pentanoic acid] | 0.01 to 0.05 µM |
| O=C(O)CCCCc1nc2cc(-c3cn(Cc4ccc(F)cc4)nn3)ccc2c(=O)n1-c1ccc(F)cc1 [Example 19, 5-{7-[1-(4-fluorobenzyl)-1H-1,2,3-triazol-4-yl]-3-(4-fluorophenyl)-4-oxo-3,4-dihydroquinazolin-2-yl}pentanoic acid] | ≤ 0.01 µM |
| O=C(O)CCCCc1nc2cc(-c3cn(-c4cccnc4)nn3)ccc2c(=O)n1-c1ccc(F)cc1 [Example 20, 5-{3-(4-fluorophenyl)-4-oxo-7-[1-(pyridin-3-yl)-1H-1,2,3-triazol-4-yl]-3,4-dihydroquinazolin-2-yl}pentanoic acid] | ≤ 0.01 µM |
| O=C(O)CCCCc1nc2cc(-n3cc(C4CC4)nn3)ccc2c(=O)n1-c1ccc(F)cc1 [Example 21, 5-[7-(4-cyclopropyl-1H-1,2,3-triazol-1-yl)-3-(4-fluorophenyl)-4-oxo-3,4-dihydroquinazolin-2-yl]pentanoic acid] | ≤ 0.01 µM |
| COc1ccccc1S(=O)(=O)NCc1cc(-c2ccc3c(=O)n(-c4ccc(F)cc4)c(CCCCC(=O)O)nc3c2)no1 [Example 24, 5-(3-(4-fluorophenyl)-7-(5-((2-methoxyphenylsulfonamido)methyl)isoxazol-3-yl)-4-oxo-3,4-dihydroquinazolin-2-yl)pentanoic acid] | ≤ 0.01 µM |
| O=C(O)CCCCc1nc2cc(-c3cc(Cc4ccc(F)cc4)on3)ccc2c(=O)n1-c1ccc(F)cc1 [Example 25, 5-(7-(5-(4-fluorobenzyl)isoxazol-3-yl)-3-(4-fluorophenyl)-4-oxo-3,4-dihydroquinazolin-2-yl)pentanoic acid] | ≤ 0.01 µM and 0.001 µM |
| C[C@@]1(Cc2ccccc2)CC(c2ccc3c(=O)n(-c4ccc(F)cc4)c(CCCCC(=O)O)nc3c2)=NO1 [Example 26, (R)-5-(7-(5-benzyl-5-methyl-4,5-dihydroisoxazol-3-yl)-3-(4-fluorophenyl)-4-oxo-3,4-dihydroquinazolin-2-yl)pentanoic acid] | ≤ 0.01 µM and 0.0074 µM |
